Measurements taken from ChEMBL document CHEMBL4049439, “Synthesis and Characterization of Tetrahydropyran-Based Bacterial Topoisomerase Inhibitors with Antibacterial Activity against Gram-Negative Bacteria” (J Med Chem, 2017).
Converted amounts (≈) assume the structure as drawn. The source made the active and inactive calls. The rule behind the calls is not given here.

Tests used:
[1] = (§1) Inhibition of wild-type Acinetobacter baumannii DNA gyrase supercoiling activity using relaxed pBR322 DNA as substrate by ethidium bromide based agarose gel electrophoresis
[2] = (§2) Inhibition of wild-type Pseudomonas aeruginosa DNA gyrase supercoiling activity using relaxed pBR322 DNA as substrate by ethidium bromide based agarose gel electrophoresis
[3] = tested on: Escherichia coli; test: Antibacterial activity against wild-type Escherichia coli ATCC 25922 by CLSI broth microdilution method; assay type: functional
[4] = Inhibition of wild-type Escherichia coli DNA topoisomerase-4 mediated supercoiled pBR322 DNA relaxation by ethidium bromide based agarose gel electrophoresis
[5] = tested on: Pseudomonas aeruginosa; test: Antibacterial activity against Pseudomonas aeruginosa ATCC 27853 by CLSI broth microdilution method; assay type: functional
[6] = Inhibition of wild-type Escherichia coli DNA gyrase supercoiling activity using relaxed pBR322 DNA as substrate by ethidium bromide based agarose gel electrophoresis
[7] = tested on: Staphylococcus aureus; test: Antibacterial activity against Staphylococcus aureus ATCC 29213 by CLSI broth microdilution method; assay type: functional
[8] = tested on: Acinetobacter baumannii; test: Antibacterial activity against fluoroquinolone-resistant Acinetobacter baumannii T6474 by CLSI broth microdilution method; assay type: functional
[9] = (§3) Inhibition of wild-type Pseudomonas aeruginosa DNA topoisomerase-4 mediated supercoiled pBR322 DNA relaxation by ethidium bromide based agarose gel electrophoresis
[10] = (§4) Inhibition of wild-type Acinetobacter baumannii DNA topoisomerase-4 mediated supercoiled pBR322 DNA relaxation by ethidium bromide based agarose gel electrophoresis
[11] = tested on: Acinetobacter baumannii; test: as §1
[12] = tested on: Pseudomonas aeruginosa; test: as §2
[13] = tested on: Pseudomonas aeruginosa; test: as §3
[14] = tested on: Acinetobacter baumannii; test: as §4
[15] = Lipophilicity, log D of the compound at pH 7.4; assay type: physicochemical; settings: buffer

| inhibition [11] | inhibition [12] | inhibition [13] | inhibition [14] | logD [15] | SMILES | IC50 [1] [nM] | IC50 [2] [nM] | MIC [3] [µg/mL] | IC50 [4] [nM] | MIC [5] [µg/mL] | IC50 [6] [nM] | MIC [7] [µg/mL] | MIC [8] [µg/mL] | IC50 [9] [nM] | IC50 [10] [nM] |
| --- | --- | --- | --- | --- | --- | --- | --- | --- | --- | --- | --- | --- | --- | --- | --- |
| – | – | – | – | – | COc1ccc2nccc(C[C@H](N)[C@@H]3CC[C@@H](NCc4ccc5c(n4)NC(=O)CO5)CO3)c2n1 | 125 | 125 | 0.125 (≈ 0.269 µM) | 30 | 0.5 (≈ 1.08 µM) | 125 | 0.06 (≈ 0.129 µM) | 0.25 (≈ 0.538 µM) | 30 | 30 |
| – | – | – | – | – | COc1cnc2ccc(=O)n(C[C@H](N)[C@@H]3CC[C@@H](NCc4ccc5c(n4)NC(=O)CO5)CO3)c2n1 | 125 | 125 | 0.5 (≈ 1.04 µM) | 30 | 1 (≈ 2.08 µM) | 500 | 0.5 (≈ 1.04 µM) | 2 (≈ 4.15 µM) | 30 | 30 |
| – | – | – | – | – | COc1ccc2ccc(F)c(C[C@H](N)[C@@H]3CC[C@@H](NCc4ccc5c(n4)NC(=O)CO5)CO3)c2n1 | 30 | 30 | ≤ 0.03 | ≤ 10 | 1 (≈ 2.08 µM) | 30 | 0.03 (≈ 0.0623 µM) | ≤ 0.03 | 30 | 30 |
| – | – | – | – | – | COc1ccc2ncc(=O)n(C[C@H](N)[C@@H]3CC[C@@H](NCc4ccc5c(n4)NC(=O)CO5)CO3)c2n1 | 125 | 125 | 0.5 (≈ 1.04 µM) | 125 | 2 (≈ 4.15 µM) | 500 | 0.125 (≈ 0.26 µM) | 2 (≈ 4.15 µM) | 30 | 125 |
| – | – | – | – | – | COc1ccc2ccc(=O)n(C[C@H](O)[C@@H]3CC[C@@H](NCc4cc5c(nn4)OCCS5)CO3)c2n1 | 2000 | 500 | > 8 | 125 | > 8 | 8000 | 0.031 (≈ 0.0638 µM) | 8 (≈ 16.5 µM) | 125 | 500 |
| – | – | – | – | – | O=C(O)c1cn(C2CC2)c2cc(N3CCNCC3)c(F)cc2c1=O [CIPROFLOXACIN] | 2000 | 500 | – | – | – | – | – | – | 8000 | 32000 |
| – | – | – | – | – | COc1ccc2nccc(C(N)C[C@@H]3CC[C@@H](NCc4ccc5c(n4)NC(=O)CO5)CO3)c2n1 (mixture of isomers) | 2000 | 500 | 1 | 125 | 8 | 8000 | 2 | 8 | 125 | 125 |
| – | – | – | – | – | COc1ccc2ncc(F)c(C[C@H](O)[C@@H]3CC[C@@H](NCc4cc5c(nn4)OCCS5)CO3)c2n1 | 2000 | 500 | – | – | – | – | – | 2 (≈ 4.1 µM) | 125 | 125 |
| – | – | – | – | – | COc1ccc2ccc(=O)n(C[C@H](O)[C@@H]3CC[C@@H](NCc4cc5c(cn4)OCCO5)CO3)c2n1 | 125 | 125 | 4 (≈ 8.54 µM) | 125 | > 8 | 8000 | ≤ 0.03 | 0.5 (≈ 1.07 µM) | 125 | 125 |
| – | – | – | – | – | COc1ccc2ncc(F)c(C[C@@H](N)[C@@H]3CC[C@@H](NCc4ccc5c(n4)NC(=O)CO5)CO3)c2n1 | 500 | 125 | 1 (≈ 2.07 µM) | 125 | > 8 | 500 | 1 (≈ 2.07 µM) | 1 (≈ 2.07 µM) | 125 | 125 |
| – | – | – | – | – | COc1ccc2ccc(=O)n(C[C@H](N)[C@@H]3CC[C@@H](NCc4ccc5c(n4)NC(=O)CO5)CO3)c2c1 | 125 | 125 | 0.25 (≈ 0.521 µM) | 30 | 4 (≈ 8.34 µM) | 125 | 0.25 (≈ 0.521 µM) | 2 (≈ 4.17 µM) | 500 | 125 |
| inactive | inactive | inactive | inactive | – | COc1ccc2nccc([C@@H](N)C[C@@H]3CC[C@@H](NCc4ccc5c(n4)NC(=O)CO5)CO3)c2n1 | – | – | – | – | – | – | – | – | – | – |
| – | – | – | – | – | COc1cnc2ccc(=O)n(C[C@H](N)[C@@H]3CC[C@@H](NCc4ccc5c(n4)NC(=O)CO5)CO3)c2c1 | 30 | 30 | 1 (≈ 2.08 µM) | 30 | 4 (≈ 8.32 µM) | 500 | 1 (≈ 2.08 µM) | 4 (≈ 8.32 µM) | 30 | 125 |
| – | – | – | – | – | COc1ccc2ccc(=O)n(C[C@H](O)[C@@H]3CC[C@@H](NCc4cc5c(cn4)OCCS5)CO3)c2n1 | 125 | 500 | 4 (≈ 8.25 µM) | 30 | > 8 | 500 | ≤ 0.03 | 0.5 (≈ 1.03 µM) | ≤ 10 | 30 |
| – | – | – | – | – | COc1ccc2ncc(=O)n(C[C@H](N)[C@@H]3CC[C@@H](NCc4ccc5c(n4)NC(=O)CO5)CO3)c2c1 | 30 | 30 | 0.25 (≈ 0.52 µM) | 30 | 4 (≈ 8.32 µM) | 500 | 0.063 (≈ 0.131 µM) | 2 (≈ 4.16 µM) | 30 | 125 |
| inactive | inactive | inactive | inactive | – | COc1ccc2nccc([C@H](N)C[C@@H]3CC[C@@H](NCc4ccc5c(n4)NC(=O)CO5)CO3)c2n1 | – | – | – | – | – | – | – | – | – | – |
| – | – | – | – | – | COc1ccc2nccc(CC(N)[C@@H]3CC[C@@H](NCc4ccc5c(n4)NC(=O)CO5)CO3)c2n1 (mixture of isomers) | 500 | 500 | 0.125 | 500 | 2 | 500 | 0.125 | 0.5 | 500 | 500 |
| – | – | – | – | – | COc1ccc2ccc(=O)n(C[C@H](O)[C@@H]3CC[C@@H](NCc4cc5c(nn4)OCCO5)CO3)c2n1 | 8000 | 8000 | > 8 | 2000 | > 8 | 32000 | 0.06 (≈ 0.128 µM) | > 8 | 500 | 8000 |
| – | – | – | – | 2 | COc1ccc2ncc(F)c(C[C@H](O)C34CCC(NCc5ccc6c(n5)NC(=O)CO6)(CC3)CO4)c2n1 | – | – | – | – | – | – | – | – | – | – |
